# Bridge positions count the residues as written; N and C are the ends. Square brackets hold non-standard residues; d marks the D form. Peptide text beside a SMILES is read from it. * marks the point of attachment. Palmitoyl = CCCCCCCCCCCCCCCC(=O)*; Myristoyl = CCCCCCCCCCCCCC(=O)*; Lauroyl = CCCCCCCCCCCC(=O)*; dOrn = NCCC[C@@H](N)C(=O)O; Octanoyl = CCCCCCCC(=O)*; Orn = NCCC[C@H](N)C(=O)O
# What was measured:
# E. coli ATCC 25922 = format: cell-based, Escherichia coli; settings: ATCC 25922, 18 h
# Procedure: (§1) The minimum inhibitory concentrations (MICs) of brevicidine and laterocidine analogues were determined against a panel of clinically relevant ESKAPE pathogens; Escherichia coli (E. coli), Klebsiella pneumoniae (K. pneumoniae), Acinetobacter baumannii (A. baumannii), Pseudomonas aeruginosa (P. aeuroginosa) and Staphylococcus aureus (S. aureus), which cause the majority of nosocomial infections in the United States.[16] […] In this resistance mechanism, the polymyxin target (lipid A) is modified, reducing binding affinity. For this reason, a strain of colistin-resistant E. coli carrying the mcr-1 gene was also included in the panel. […]
# (§2) IV. Antimicrobial testing
# (§3) All minimum inhibitory concentrations (MICs) were determined according to Clinical and Standards Laboratory Institute (CLSI) guidelines. Blood agar plates were inoculated with glycerol stocks of E. coli ATCC 25922, K. pneumoniae ATCC 13883, A. baumannii ATCC 17961, P. aeruginosa PAO1 and S. aureus USA300. The inoculated agar plates were then incubated for 16 h at 37 °C . Individually grown colonies were subsequently used to inoculate 5 mL aliquots of TSB that were then incubated at 37 °C with shaking at 220 rpm. E. coli 25922 MCR-1 glycerol stock was used to inoculate 5 mL of TSB supplemented with kanamycin that was then incubated for 16 h at 37 °C with shaking at 220 rpm. The next day the culture was diluted 100 fold in TSB supplemented with kanamycin and incubated at 37 °C with shaking at 220 rpm. In parallel, the lipopeptide antibiotics DMSO stocks to be assessed were serially diluted with MHB in polypropylene 96-well plates (50 µL in each well). Colistin sulfate stocks were dissolved in water before being diluted with MHB. Aliquots of the inoculated TSB were incubated until an OD600 of around 0.5 was reached. The bacterial suspensions were then diluted with MHB (2 x 10^5 CFU mL-1) and added to the microplates containing the test compounds (50 µL to each well). The well-plates were sealed with an adhesive membrane and after 18 h of incubation at 37 °C with shaking at 600 rpm, the wells were visually inspected for bacterial […]
# (§4) growth. MIC values reported are based on three technical replicates and defined as the lowest concentration of the compound that prevented visible growth of bacteria. […]
# (§5) The values obtained from a read-out at 415 nm were corrected for background (negative control) and transformed to a percentage relative to the positive control.
# (§6) VI. HPLC and HRMS analysis of peptides
# (§7) Peptide Name Chemical Calcd Mass found Calcd Overall […]
# E. coli ATCC 25922 MCR-1 = format: cell-based, Escherichia coli; settings: colistin-resistant strain carrying mcr-1; CLSI broth microdilution in MHB, 18 h at 37 °C, visual inspection; three technical replicates
# Procedure: as §1
# Colisitin sulfate was purchased from Activate Scientific. Kanamycin monosulfate was purchased from MP Biomedicals. E. coli ATCC 25922, S. aureus USA300 (ATCC BAA1717), K. pneumoniae ATCC 13883 and A. baumannii ATCC 17961 belong to the American Type Culture Collection (ATCC). P. aeruginosa PAO1 was kindly provided by L.H.C. Quarles Van Ufford, Utrecht University, Utrecht, The Netherlands. E. coli ATCC 25922 MCR-1 was transfected in house using the pGDP2-MCR1 plasmid kindly provided by Yong-Xin Li, The University of Hong Kong, Hong Kong, China. Sheep blood agar plates (Ref. PB5039A) were purchased from Thermo Scientific. Tryptic soy broth (Ref. 02-200-500) was purchased from Scharlab. Mueller-Hinton broth (Ref. X927.1) was purchased from Carl Roth. Polypropylene 96-wells plates (Ref. 3879) were purchased from Corning. […]
# (10.0 mL). 2-Chlorotrityl (CT) chloride resin (2.00 g, 0.81 mmol g-1) and DIPEA (420 µL, 2.40 mmol) were added. […]
# A gradient […]
# method for C14 - C16 laterocidine was employed, starting at 100% solvent A for 2 min, ramping up to 70 % solvent B over 45 min, ramping up to 100% solvent B over 1 min, remaining there for 6 min before ramping down to 100% solvent A and remaining there for 5 min. High resolution mass spectrometry (HRMS) spectra of brevicidine peptides were recorded by Analytical Services and Environmental Projects (ASEP) at Queen’s University Belfast on a Waters LCT Premier ToF mass spectrometer using the electrospray ionisation (ESI) technique. HRMS spectra of laterocidine peptides were performed on a Thermo Scientific Dionex UltiMate 3000 HPLC system with a Phenomenex Kinetex C18 (2.6 µm, 2.1 x 150 mm) column at 35 °C and equipped with a diode array detector. The following solvent system, at a flow rate of 0.3 mL/min, was used: solvent A = 0.1% formic acid in water, solvent B = 0.1% formic acid in acetonitrile. A gradient method was employed, starting at 95 % solvent A and 5 % solvent B for 1 min, ramping up to 95 % solvent B over 9 min, ramping up to 98 % solvent B over 1 min, remaining there for 1 min before ramping back down to 95 % solvent A over 2 min and remaining there for 1 min.
# The system was connected to a Bruker micrOTOF-Q II mass spectrometer (ESI ionization) calibrated internally with sodium […]
# as §2
# as §3, with “MHB.” for “MHB. Aliquots of the inoculated TSB were incubated until an OD600 of around 0.5 was reached. The bacterial suspensions were then diluted with MHB (2 x 10^5 CFU mL-1) and added to the microplates containing the test compounds (50 µL to each well). The well-plates were sealed with an adhesive membrane and after 18 h of incubation at 37 °C with shaking at 600 rpm, the wells were visually inspected for bacterial”
# K. pneumoniae ATCC 13883 = format: cell-based, Klebsiella pneumoniae; settings: ATCC 13883, 18 h
# Procedure: as §1, §2, §3, §4, §5, §6, §7
# A. baumannii ATCC 17961 = format: cell-based, Acinetobacter baumannii; settings: ATCC 17961, 18 h
# Procedure: as §1, §2, §3, §4, §5, §6, §7
# P. aeruginosa PAO1 = format: cell-based, Pseudomonas aeruginosa; settings: PAO1, 18 h
# Procedure: as §1, §2, §3, §4, §5, §6, §7
# S. aureus USA300 = format: cell-based, Staphylococcus aureus; settings: USA300, 18 h
# Procedure: as §1, §2, §3, §4, §5, §6, §7
# Sheep red blood cells = format: cell-based; settings: red cells of sheep, 1 h, 64 μg mL^−1
# Procedure: Having ascertained the antimicrobial activity of all synthetic peptides against a panel of ESKAPE pathogens, we next assessed their mammalian toxicity with hemolytic assays using sheep red blood cells. The % hemolysis for all peptides at 64 μg mL^−1 was determined, with the hemolysis induced by the surfactant 0.1% Triton X-100 taken as 100%. […] Hemolysis was <1% for all analogues with a C8 chain or shorter, including the strongest antibacterial peptide C8-Lat (22). Hemolytic activity increased up to C14 (>50% for C14-Lat) and then decreased at longer chain lengths, perhaps due to decreased solubility of peptides or aggregation. […]
# Phosphate-Buffered Saline (PBS) containing 0.002% Tween20 (buffer) five times. Then, the red blood cells were normalized to obtain a positive control read-out between 2.5 and 3.0 at 415 nm to stay within the linear range with the maximum sensitivity. A serial dilution of the compounds (128 – 1 µg/mL, 75 µL) was prepared in a 96-well polypropylene plate. The outer border of the plate was filled with 75 µL buffer. Each plate contained a positive control (0.1% Triton-X final concentration, 75 µL) and a negative control (buffer, 75 µL) in triplicate. The normalized blood cells (75 µL) were added and the plates were incubated at 37 °C for 1 h while shaking at 500 rpm. A flat-bottom polystyrene plate with 100 µL buffer in each well was prepared. After incubation, the plates were centrifuged (800 g for 5 min at room temperature) and 25 µL of the supernatant was transferred to their respective wells in the flat-bottom plate. The values obtained from a read-out at 415 nm were corrected for background (negative control) and transformed to a percentage relative to the positive control. […]
SMILES,Antimicrobial activity (MIC) E. coli ATCC 25922 (E. coli ATCC 25922),Antimicrobial activity (MIC) E. coli ATCC 25922 MCR-1 (E. coli ATCC 25922 MCR-1),Antimicrobial activity (MIC) K. pneumoniae ATCC 13883 (K. pneumoniae ATCC 13883),Antimicrobial activity (MIC) A. baumannii ATCC 17961 (A. baumannii ATCC 17961),Antimicrobial activity (MIC) P. aeruginosa PAO1 (P. aeruginosa PAO1),Antimicrobial activity (MIC) S. aureus USA300 (S. aureus USA300),"% Hemolytic activity, sheep red blood cells (Sheep red blood cells)"
CCCCCCCCCCCCCC(=O)N[C@H](CC(N)=O)C(=O)N[C@H](Cc1ccc(O)cc1)C(=O)N[C@H](Cc1c[nH]c2ccccc12)C(=O)N[C@H](CCCN)C(=O)N[C@@H](CCCN)C(=O)NCC(=O)N[C@H](CCCN)C(=O)N[C@@H](Cc1c[nH]c2ccccc12)C(=O)N[C@@H]1C(=O)N[C@@H]([C@@H](C)CC)C(=O)NCC(=O)N[C@@H](CO)C(=O)O[C@@H]1C [Compound 16] (Myristoyl-[dN][dY][dW][dOrn][Orn]G[dOrn]WTIGS; ester 9-C),16 µg/mL,16 µg/mL,32 µg/mL,4 µg/mL,32 µg/mL,>32 µg/mL,18.0%
CCCCCCCCCCCCCCCC(=O)N[C@H](CC(N)=O)C(=O)N[C@H](Cc1ccc(O)cc1)C(=O)N[C@H](Cc1c[nH]c2ccccc12)C(=O)N[C@H](CCCN)C(=O)N[C@@H](CCCN)C(=O)NCC(=O)N[C@H](CCCN)C(=O)N[C@@H](Cc1c[nH]c2ccccc12)C(=O)N[C@@H]1C(=O)N[C@@H]([C@@H](C)CC)C(=O)NCC(=O)N[C@@H](CO)C(=O)O[C@@H]1C [Compound 17] (Palmitoyl-[dN][dY][dW][dOrn][Orn]G[dOrn]WTIGS; ester 9-C),>32 µg/mL,>32 µg/mL,>32 µg/mL,32 µg/mL,>32 µg/mL,>32 µg/mL,13.3%
CCCCCCCC(=O)N[C@H](CC(N)=O)C(=O)N[C@H](Cc1ccc(O)cc1)C(=O)N[C@H](Cc1c[nH]c2ccccc12)C(=O)N[C@H](CCCN)C(=O)N[C@@H](CCCN)C(=O)NCC(=O)N[C@H](CCCN)C(=O)N[C@@H](Cc1c[nH]c2ccccc12)C(=O)N[C@@H]1C(=O)N[C@@H]([C@@H](C)CC)C(=O)NCC(=O)N[C@@H](CO)C(=O)O[C@@H]1C [Compound 13] (Octanoyl-[dN][dY][dW][dOrn][Orn]G[dOrn]WTIGS; ester 9-C),16 µg/mL,16 µg/mL,16 µg/mL,16 µg/mL,8 µg/mL,>32 µg/mL,0.4%
CCCCCCCCCCCC(=O)N[C@H](CO)C(=O)N[C@H](Cc1ccc(O)cc1)C(=O)N[C@H](Cc1c[nH]c2ccccc12)C(=O)N[C@H](CCCN)C(=O)N[C@@H](CCCN)C(=O)NCC(=O)N[C@H](CCCN)C(=O)N[C@@H](Cc1c[nH]c2ccccc12)C(=O)N[C@@H]1C(=O)N[C@@H]([C@@H](C)CC)C(=O)N[C@@H](CC(N)=O)C(=O)NCC(=O)NCC(=O)O[C@@H]1C [Compound 24] (Lauroyl-[dS][dY][dW][dOrn][Orn]G[dOrn]WTINGG; ester 9-C),4 µg/mL,4 µg/mL,8 µg/mL,2 µg/mL,8 µg/mL,32 µg/mL,21.5%

# Source: PMC9749936, “Synthesis and structure–activity relationship studies of N-terminal analogues of the lipopeptide antibiotics brevicidine and laterocidine” (RSC Medicinal Chemistry, 2022)
